Measured values from patent US7955808B2, “Bitter taste receptors” (Deutsches Institut für Ernährungsorschung, Stiftung des …, priority 2002, dated 2011).
Where two headings read alike, the source gives them in different places.

Key:
[1] = tested on: human panelists; assay: Human taste adaptation experiment; assay type: in vivo; details: for own bitterness during prolonged stimulation (adaptation): 120 s or 180 s in the mouth; for initial bitterness score by test panel: 8 mM, 15 s
Method: To investigate adaptation, the 8 panelists first maintained aqueous solutions (5 ml) of phenyl-β-D-glucopyranoside (8 mM), phenyl-alpha-D-glucopyranoside (180 mM), salicin (8 mM), or helicin (8 mM) for 15 s in their oral cavities and evaluated the bitter intensity as described above. After 30 min, they kept a denatonium benzoate solution (5 ml, 0.0003 mM) for 15 s in their mouth and evaluated its bitterness. The panelists spat off the denatonium benzoate solution, took up the phenyl-β-D-glucopyranoside or the phenyl-alpha-D-glucopyranoside solutions orally for 120 s or 180 s and judged their bitterness intensity after 15, 30, 60, 120 and 180s. Thereafter, the panelists spat off these solutions and then sequentially took up salicin, helicin (5 ml, 8 mM) and denatonium benzoate (5 ml, 0.0003 mM) and evaluated bitterness intensities of these solutions after 15 s. After an additional 30 min, the first experiment was repeated. The data of three different sessions for each panelist were averaged. Intensity values between individuals and separate sessions differed by not more than ±0.5 units.

[2] = tested on: human panelists; assay: Human taste experiments: bitter thresholds and dose-response by sensory panel; assay type: in vivo; details: for EC50: bitterness intensity dose-response; for Threshold Value Human: bitter threshold, triangle test, tap water
Method: 15 experienced panelists in a sensory panel room at 22-25° C. determined bitter thresholds on three different sessions using a triangle test with tap water as solvent, according to methodology set out in J. Agric. Food Chem., 49, 231-238 (2001), or Mailgaard M et al, “Sensory Evaluation Techniques” (CRC Press LLC, New York 1999). For dose-response relations, bitter tastant concentration series were presented to 10 trained panelists in random order. The panelists ranked the samples in increasing order of intensity and, for each concentration, evaluated bitterness intensity on a scale from 0 to 5 (ref. 24). The dose-response curves of three different sessions were averaged. The intensity values between individuals and separate sessions differed by not more than 0.5 units.

[3] = target: T1, hTAS2R16 (Homo sapiens, UniProt Q9NYV7, R222H); assay: FLIPR calcium assay, hTAS2R16-expressing HEK293/15 transfectants; assay type: cell-based
T1 construct: gene-specific primers that span the complete coding region of the individual hTAS2R genes; first 45 amino acids of rat somatostatin type 3 receptor (cell surface-targeting signal) (N); expressed in transfected cells; host or cells: HEK293/15 cells (HEK293 stably expressing Galpha15), transient transfection
T1 sequence (Q9NYV7 1-291 R222H): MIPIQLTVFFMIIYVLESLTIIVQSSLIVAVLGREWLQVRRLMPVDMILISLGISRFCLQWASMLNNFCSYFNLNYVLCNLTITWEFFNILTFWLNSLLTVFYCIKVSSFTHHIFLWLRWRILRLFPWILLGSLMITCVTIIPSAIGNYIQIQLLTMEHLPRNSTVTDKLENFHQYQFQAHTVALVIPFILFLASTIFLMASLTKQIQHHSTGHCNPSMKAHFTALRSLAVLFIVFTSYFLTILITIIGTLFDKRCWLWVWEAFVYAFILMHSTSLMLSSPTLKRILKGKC
Method: A fluorescence imaging plate reader (FLIPR, Molecular Devices) was used to functionally screen cell populations transiently transfected with expression vectors encoding the above-described 24 bitter receptors and to establish concentration-response curves for hTAS2R16 and hTASR10. […] For the FLIPR experiments the HEK293/15 cells were grown to 50% confluence. […] After 48 h the cells in each well were transfected using Lipofectamine 2000 and 24-30 h later were loaded with FIuo4AM (Molecular Probes). Thereafter they were stimulated with bitter compounds (SigmaAldrich, further purified by reversed-phase HPLC to >99% purity). Calcium signals were recorded simultaneously from each well at 1 Hz at 510 nm after excitation at 488 nm and the recordings were corrected for cell density. […] The calculations rest on at least four independent transfection experiments.
EC50 and threshold values obtained with hTAS2R16-expressing transfectants are shown in Table 1 below and the results are described in Example 4.

[4] = target: T1, hTAS2R16; assay: FLIPR assay, heterologous expression of hTAS2R16; assay type: cell-based
Source text: (§1) Transient transfection of TAS2Rs into HEK-293T-Gα16gustducin44 cells.

[5] = target: T2, hTAS2R10 (Homo sapiens, UniProt Q9NYW0, T156M); assay: FLIPR assay, heterologous expression of hTAS2R10; assay type: cell-based
T2 construct: gene-specific primers that span the complete coding region of the individual hTAS2R genes; first 45 amino acids of rat somatostatin type 3 receptor (cell surface-targeting signal) (N); expressed in transfected cells; host or cells: HEK-293T-Gα16gustducin44 cells (alternatively HEK-293 co-transfected with phospholipase-Cβ2 and α-gustducin)
T2 sequence (Q9NYW0 1-307 T156M): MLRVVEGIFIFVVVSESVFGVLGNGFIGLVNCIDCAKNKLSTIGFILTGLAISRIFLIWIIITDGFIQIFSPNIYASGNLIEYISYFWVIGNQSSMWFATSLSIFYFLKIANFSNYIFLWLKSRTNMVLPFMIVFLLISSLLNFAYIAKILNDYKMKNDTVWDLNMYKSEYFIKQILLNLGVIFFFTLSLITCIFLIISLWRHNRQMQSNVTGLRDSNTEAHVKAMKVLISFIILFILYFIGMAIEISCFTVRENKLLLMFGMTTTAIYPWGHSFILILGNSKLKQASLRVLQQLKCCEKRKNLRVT
Source text: as §1

[6] = target: T3, hTAS2R38 (Homo sapiens, UniProt P59533); assay: FLIPR assay, heterologous expression of hTAS2R38; assay type: cell-based
T3 construct: gene-specific primers that span the complete coding region ... contains the first 45 amino acids of the rat somatostatin type 3 receptor
T3 sequence (P59533 1-333 A49P/I296V): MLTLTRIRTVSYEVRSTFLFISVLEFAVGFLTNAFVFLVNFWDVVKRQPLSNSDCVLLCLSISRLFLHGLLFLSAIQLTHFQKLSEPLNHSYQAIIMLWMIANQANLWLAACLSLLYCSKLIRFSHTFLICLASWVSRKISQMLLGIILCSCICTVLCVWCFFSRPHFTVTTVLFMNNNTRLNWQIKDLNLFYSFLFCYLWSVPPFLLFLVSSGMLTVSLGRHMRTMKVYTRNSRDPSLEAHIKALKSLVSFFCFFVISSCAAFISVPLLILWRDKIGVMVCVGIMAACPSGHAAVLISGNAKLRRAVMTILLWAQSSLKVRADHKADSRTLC
Source text: These cells stably express a chimeric G protein constructed from human Gα16 and rat gustducin. Finally, we seeded the transfected cells at a density of 3×10^3 cells per well into 96-well black-wall, clear-bottom microtiter plates (Greiner).
Co-transfection of TAS2Rs with gustducin and phospholipase-Cβ2 into HEK-293 cells. Alternatively, we transfected simultaneously plasmid DNAs encoding one of the TAS2Rs, phospholipase-Cβ2 and α-gustducin into HEK-293 cells using the lipofectamine method. Additional cotransfection of G-protein β and γ-subunits may improve the bitter tastant-induced responses. Thereafter, the transfected cells were seeded at a density of 3×10^3 cells per well into 96-well black-wall, clear-bottom microtiter plates (Greiner).
Thereafter, cells were gently washed in HBS by an automated plate washer (Denley Cellwash, Labsystenms) and transferred to the FLIPR (Molecular Devices). The FLIPR integrates an argon laser excitation source, a 96-well pipettor, and a detection system utilizing a Charged Coupled Device imaging camera. […] Fluorescence data were collected 1 min before and 10 min after stimulation. Data were collected every 6 s before and every 1 s after agonist stimulation. 50 μl of 3× concentrated agonists were delivered within 2 by the integrated 96-well pipettor to the wells containing 100 μl HBS. Agonist responses were quantified using the amplitudes of the fluorescence peaks. We averaged the responses of five wells containing cells expressing the same receptor and that received the same stimulus. Calcium traces were determined in triplicate of mock-transfected cells stimulated with the same concentration of tastant.

Approx. Threshold [6]	EC50 ([6]; read-out: EC50)	Compound	Threshold Value Human [2]	Threshold ([4]; hTAS2R16)	receptor activation (in words) [6]	also measured
–	–	OCC1OC(Oc2ccccc2)C(O)C(O)C1O [Compound 11, phenyl-alpha-D-glucopyranoside]	9 ± 3 mM	–	–	own bitterness during prolonged stimulation (adaptation) [1]: desensitized strongly; cross-adaptation with all tested beta-D-glucopyranosides ([1]; in vivo): failed to cross-adapt; EC50 ([2]; Homo sapiens): 50000 µM; EC50 [3]: > 100000 µM; Threshold Value FLIPR [3]: n.r. (No response up to 100 mM)
–	–	COC1OC(CO)C(O)C(O)C1O [Compound 7, methyl-beta-D-lucopyranoside]	32 ± 11 mM	–	–	–
–	–	O=Cc1ccccc1O[C@@H]1O[C@H](CO)[C@@H](O)[C@H](O)[C@H]1O [Compound 3, helicin]	0.4 ± 0.1 mM	0.3 ± 0.1 mM	–	EC50 ([4]; hTAS2R16, read-out: EC50): 2300 ± 400 µM; initial bitterness score by test panel [1]: equally intensely bitter; bitterness after prolonged stimulation with phenyl-beta-D-glucopyranoside (cross-adaptation) ([1]; in vivo): less bitter; EC50 [2]: 2200 µM; EC50 [3]: 2300 µM; Threshold Value FLIPR [3]: 0.3 ± 0.1 mM
–	–	COc1cc2c(cc1OC)[C@@]13CCN4CC5=CCO[C@H]6CC(=O)N2[C@H]1[C@H]6[C@H]5C[C@H]43 [Brucine]	–	–	–	EC50 [5]: 60 µM; Approx. Threshold ([5]; hTAS2R10): 0.01 mM; receptor activation (in words) ([5]; hTAS2R10): activated
–	–	OC[C@H]1O[C@@H](Oc2ccccc2)[C@H](O)[C@@H](O)[C@H]1O [Compound 10, phenyl-beta-D-galactopyranoside]	40 ± 13 mM	–	–	EC50 [3]: > 100000 µM; Threshold Value FLIPR [3]: n.r. (No response up to 100 mM)
–	–	O=[N+]([O-])c1ccccc1O[C@@H]1O[C@H](CO)[C@@H](O)[C@H](O)[C@H]1O [Compound 5, 2-nitro-phenyl-beta-D-glucopyranoside]	–	0.3 − 1 mM	–	Threshold Value FLIPR [3]: 1.5 ± 0.5 mM
3 µM	18 µM	CC(=S)Nc1ccccc1 [Thioacetanilide]	–	–	activated	–
–	–	O=[N+]([O-])c1ccc(O[C@@H]2O[C@H](CO)[C@@H](O)[C@H](O)[C@H]2O)cc1 [4-Nitrophenyl-β-D-Glucoside]	–	1 − 3 mM	–	–
–	–	O=c1ccc2cc(O[C@@H]3O[C@H](CO)[C@@H](O)[C@H](O)[C@H]3O)c(O)cc2o1 [Compound 9, esculin]	4 ± 1 mM	4 ± 2 mM	–	Threshold Value FLIPR [3]: 4 ± 2 mM
–	–	OC[C@H]1O[C@@H](Oc2ccc(O)cc2)[C@H](O)[C@@H](O)[C@@H]1O [Compound 4, arbutin]	0.9 ± 0.3 mM	0.5 ± 0.2 mM	–	EC50 ([4]; hTAS2R16, read-out: EC50): 5800 ± 900 µM; EC50 [2]: 5400 µM; EC50 [3]: 5800 µM; Threshold Value FLIPR [3]: 0.5 ± 0.2 mM
10 to 30 µM	100 µM	CN(C)C(=S)N(C)C [Tetramethylthiourea]	–	–	activated	–
300 µM	~2000 µM	O=c1cc[nH]c(=S)[nH]1 [Compound 2-Thiouracil, 2-Thiouracil]	–	–	activated	–
–	–	N#CC(O[C@@H]1O[C@H](CO[C@@H]2O[C@H](CO)[C@@H](O)[C@H](O)[C@H]2O)[C@@H](O)[C@H](O)[C@H]1O)c1ccccc1 (stereo partly shown) [Compound 8, amygdalin]	–	–	–	EC50 [4]: 20000 ± 3400 µM; EC50 [3]: 20000 µM
30 µM	260 µM	CCNC(N)=S [N-Ethylthiourea]	–	–	activated	–
20 µM	180 µM	Cc1cc(=O)[nH]c(=S)[nH]1 [4(6)-Methyl-2-thiouracil]	–	–	activated	–
–	–	O=[N+]([O-])c1ccc(S[C@@H]2O[C@H](CO)[C@@H](O)[C@H](O)[C@H]2O)cc1 [4-Nitrophenyl-β-D-Thioglucoside]	–	1 − 5 mM	–	–
–	–	O=c1cc(O)[nH]c(=S)[nH]1 [2-Thiobarbituric acid]	–	–	activated	reacts at [6]: reacts at 10 mM
–	–	OC[C@H]1O[C@@H](Oc2ccc3ccccc3c2)[C@H](O)[C@@H](O)[C@@H]1O [Compound 6, naphthyl-beta-D-pyranoside]	0.2 ± 0.1 mM	–	–	EC50 ([4]; hTAS2R16, read-out: EC50): 1000 ± 100 µM; EC50 ([2]; Homo sapiens): 1400 µM; EC50 [3]: 1000 µM
–	–	O=[N+]([O-])c1ccc(O[C@@H]2O[C@H](CO)[C@@H](O)[C@H](O)[C@@H]2O)cc1 [4-Nitrophenyl-β-D-Mannoside]	–	1 − 3 mM	–	–
2 µM	15 µM	CC(=O)NC(N)=S [Acetylthiourea]	–	–	activated	–
–	–	OC[C@H]1O[C@@H](Oc2ccccc2)[C@H](O)[C@@H](O)[C@@H]1O [Compound 1, phenyl-beta-D-glucopyranoside]	0.1 ± 0.05 mM	0.07 ± 0.02 mM	–	EC50 ([4]; hTAS2R16, read-out: EC50): 1100 ± 100 µM; initial bitterness score by test panel [1]: equally intensely bitter; own bitterness during prolonged stimulation (adaptation) [1]: declined; EC50 [2]: 700 µM; EC50 [3]: 1100 µM; Threshold Value FLIPR [3]: 0.07 ± 0.02 mM

Compound	Approx. Threshold [6]	EC50 ([6]; read-out: EC50)	Threshold Value Human [2]	Threshold ([4]; hTAS2R16)	receptor activation (in words) [6]	also measured
NC(=S)Nc1ccccc1 [Phenylthiocarbamid]	0.3 µM	–	–	–	activated	EC50 [6]: 2 µM
N-Methylthiourea	100 µM	600 to 800 µM	–	–	activated	–
N,N-dimethylthioformamide [N,N-Dimethyl- thioformamide]	10 µM	55 µM	–	–	activated	–
S=C1NCCN1 [2-Imidazolidinethione]	10 µM	–	–	–	activated	–
Thioacetamide	100 µM	–	–	–	activated	–
